“Also recorded” adds a separate entry of the source.
Key:
Format in all cases: cell-based
[1] = system: Influenza A USSR/90(H1 N1); assay: Anti-Influenza Activity (Hemadsorption Assay), Influenza A USSR/90; details: for inhibition: Influenza A virus, read-out: % Inhibition of Hemadsorption Foci
Description: Upon infection of a monolayer of tissue culture cells by influenza virus, the cell surface is altered so that guinea pig erythrocytes can be adsorbed to the cell surface. The number of foci of adsorbed cells (hemadsorption foci forming units HAFFU) is a quantitative measure of infectivity. The method is as follows.
The monolayers were subcultured in the following manner: The medium was poured off, and the monolayer washed two times with approximately 50 ml per wash of calcium and magnesium free phosphate buffered saline (PBS), (GIBCO #419) at a pH of 7.2. One ml of trypsin-EDTA solution (GIBCO #530L) containing 0.5 g trypsin (1:250) and 2.0 g EDTA/liter of Modified Puck's Saline A was added at 37° C. to each flask and dispersed over the monolayer with gentle shaking. The flasks were then placed in an incubator at 37° C. for approximately 3-5 minutes depending on the time required to dislodge the cells. Occasional shaking was required. Ten ml of planting medium was added to each flask and the cells dispersed by aspirating and expelling the suspension from the pipette. The contents of a series of flasks were pooled and the cells in the suspension were diluted with planting medium to 7-8.5×10^4 cells/ml. The planting medium consisted of the following composition: Minimum Essential Medium Eagles (MEM) with Earle's salts and HEPES buffer (GIBCO #236) supplemented by adding the following substances as specified to 87 ml of MEM:
The following day the medium was removed and replaced with fresh planting medium. The monolayers were used for experimentation when they reached a condition in which they were almost confluent (approximately 3-4 days).
When the Linbro tray HeLa cell cultures were ready for experimentation (see cells), the medium was decanted and 1 ml of maintenance medium (MEM with FCS reduced to 3%) containing the compound being tested at a given concentration was added to 4 replicate cultures within a tray.
A series of different drug concentrations ranging from 2.3 to 150 μg/ml were used. Maintenance medium alone was used for control cultures. After the administration of drug and control medium, 0.1 ml of the diluted viral suspension was added to experimental groups and infected control cultures. Saline alone was added to non-infected control cultures. The Linbro trays were then incubated at 37° C. for 18 hours, after which media in all groups was aspirated. Each culture was washed once with PBS. The saline was aspirated and 0.5 ml of a 0.4% v/v guinea pig red blood cell suspension in PBS was added to each culture well. The cultures remained at room temperature for 30 minutes after which the medium was decanted and culture washed […] with PBS to remove all but the specifically bound red cells. After the third wash, maintenance medium was added to all cultures.
A Howard Micrometer eyepiece (C8385) was inserted within the ocular of a Nikon inverted phase contrast microscope. Each culture was scanned with a 4× low paper objective and direct counts of hemadsorbed red cells were counted using the eyepiece grid as a field marker. Partial or complete fields were counted per experimental group depending on the resulting number and density of hemadsorbed cells in the infected control cultures. Magnification of 60× or 150× were chosen to obtain the best conditions for enumerating the hemadsorbed cells. Field factors were calculated for counting hemadsorption at 60× and 150×. At 60× magnification, total field count was calculated using a multiplication factor of 55.5. At 150× magnification the multiplication factor was 273. The multiplication factors of 55.5 and 273 represent the total number of fields at 60× and 150× magnifications, respectively. The number of fields counted ranged from 3 to 5 per well with 3 to 4 wells per treatment group employed (see raw data tables in results section for number of fields examined). Means and standard errors were calculated and the data was evaluated using student's t-test analysis.

influenza virus = assay: Anti-influenza activity (summary); details: for number of different strains of influenza virus inhibited: concentrations ranging from 1-150 μg/ml
Mouse spleen cells = assay: Mitogen Induced (Con A) Mouse Lymphocyte Proliferation
From the text: The following three assay procedures are used to evaluate the ability of the test substances to modulate the activity of several classes of cells in the immune system. In these systems it is possible to identify both immunopotentiating activity (evidence by an enhancement of the parameter examined) as well as immunosuppressant activity (evidenced by an inhibition of the parameter examined).
1. Mitogen--Induced Mouse Spleen Cell Assay--Mouse spleen cells contain a population of both B and T lymphocytes which can be stimulated by a number of foreign substances (e.g., plant mitogens such as Con A) to proliferate. This enhanced proliferation is an indication of enhanced cell mediated immunity. The method below describes the system used to evaluate test substances as immunopotentiators.
Concanavalin A (Calbiochem, La Jolla, Calif.), Lot #210073, lyophilized in NaCl, was prepared first as a 1% solution and diluted as a 2× concentration for each dilution (0.5, 1.0, 2.5 μg/ml).
Six to eight week old male Balb/c and C3 H inbred mice were obtained from the following sources: Flow Research Animals, Inc., Dublin, Va.; Charles River Breeding Laboratories, Wilmington, Mass.; Laboratory Supply Company, Indianapolis, Ind.; and Lionel Strong Foundation, San Diego, Calif.
Three to five mice were sacrificed by cervical dislocation and the spleens aseptically removed. Pooled spleens were minced and teased with sterile forceps; then strained through a double layer of nylon mesh. The cell suspension was washed once with 15 ml of RPMI 1640 supplemented with 5% fetal calf serum and antibiotics. Cells were cultured at a concentration of 10^6 cells/0.1 ml/well in micro-plates. Cultures were incubated in the presence or absence of mitogen in a humidified atmosphere containing 5% CO2 for 48 hours. The test compound was added to cultures at various concentrations concommitant with mitogen.
Proliferation was assayed by the degree of incorporation of 1.0 μCi of [^3 H] thymidine over an 18 hour incubation period. Cultures were harvested by a MASH unit (Otto Hiller Co., Madison, Wisconsin) and thymidine incorporation was assayed by liquid scintillation spectrometry. Cultures were performed in triplicate and data are expressed as means plus or minus the strandard error of the experimental means. Drug stimulation indices over control values were also calculated and portrayed graphically.

SMILES	% Inhibition of Hemadsorption Foci ([1]; Conc. 10-100 μg/ml) [%]	% Inhibition of Hemadsorption Foci ([1]; Conc. >100 μg/ml) [%]	DIP.PAcBA potentiation of Anti-Influenza activity (influenza virus)	inhibition ([1]; Conc. 10-100 μg/ml) [%]	anti-influenza activity by themselves (influenza virus)	number of different strains of influenza virus inhibited (influenza virus)	also measured
CCCCCCC(CO)n1cnc2c(=O)[nH]cnc21 (stereo not drawn) [NPT 15418]	46	52	does potentiate the anti-influenza activity and Yes	–	–	–	% Inhibition of Hemadsorption Foci ([1]; Conc. <10 μg/ml): 16%; Maximum Percent Change, Mitogen Induced (Con A) Mouse Lymph. Prolif. (Mouse spleen cells; 1.0-10, listed as 15418): 73%; Maximum Percent Change, Mitogen Induced (Con A) Mouse Lymph. Prolif. (Mouse spleen cells; 10-100, listed as 15418): 26%; Maximum Percent Change, Mitogen Induced (Con A) Mouse Lymph. Prolif. (Mouse spleen cells; .01-1.0, listed as 15418): 41%
CCCCCC[C@H]([C@H](C)O)n1cnc2c(=O)[nH]cnc21 (relative stereo) [NPT 15410]	96	96	does not potentiate the anti-influenza activity; also recorded: Both are equally active	–	–	–	% Inhibition of Hemadsorption Foci ([1]; Conc. <10 μg/ml, listed as 15410): 58%; Maximum Percent Change, Mitogen Induced (Con A) Mouse Lymph. Prolif. (Mouse spleen cells; 1.0-10): 40%; Maximum Percent Change, Mitogen Induced (Con A) Mouse Lymph. Prolif. (Mouse spleen cells; 10-100): 40%; Maximum Percent Change, Mitogen Induced (Con A) Mouse Lymph. Prolif. (Mouse spleen cells; .01-1.0): 140%
CCCCCC[C@H]([C@H](C)O)n1cnc2c(=O)[nH]cnc21 (relative stereo) [NPT 15392, Erythro-9-(2-Hydroxy-3-Nonyl)Hypoxanthine]	–	–	–	100	significant anti-influenza activity	at least 4 different strains	% Inhibition of Hemadsorption Foci ([1]; Conc. <10 μg/ml, listed as 15392): 86%
CCCCCCC(CO)n1cnc2c(=O)[nH]cnc21 (stereo not drawn) [NPT 15417]	–	–	–	58	significant anti-influenza activity	at least 4 different strains	Maximum Percent Change, Mitogen Induced (Con A) Mouse Lymph. Prolif. (Mouse spleen cells; 1.0-10, listed as 15417): 0%; Maximum Percent Change, Mitogen Induced (Con A) Mouse Lymph. Prolif. (Mouse spleen cells; 10-100, listed as 15417): 0%; Maximum Percent Change, Mitogen Induced (Con A) Mouse Lymph. Prolif. (Mouse spleen cells; .01-1.0, listed as 15417): 0%
